From patent US20220104492A1, “PYRIDAZINIUM COMPOUNDS FOR USE IN A METHOD OF CONTROLLING UNWANTED PLANT GROWTH” (SYNGENTA CROP PROTECTION AG, priority 2019, published 2022) come the findings set out here.

What all share (assay): Post-emergence efficacy (glasshouse, spray application)
Common to all, as to format: in vivo

The test system of experiment [1] is Echinochloa crus-galli (ECHCG). The note with it: 312 h, Application rate 500 g/Ha, evaluated after 13 days, 100=total damage to plant, 0=no damage to plant, read-out: Control of weed species after post-emergence application, ECHCG. The protocol: (§1) Seeds of a variety of test species were sown in standard soil in pots. After cultivation for 14 days (post-emergence) under controlled conditions in a glasshouse (at 24/16° C., day/night; 14 hours light; 65 humidity), the plants were sprayed with an aqueous spray solution derived from the dissolution of the technical active ingredient formula (I) in a small amount of acetone and a special solvent and emulsifier mixture referred to as IF50 (11.12% Emulsogen EL360 TM+44.44% N-methylpyrrolidone+44.44% Dowanol DPM glycol ether), to create a 50 g/l solution which was then diluted to required concentration using a solution of 0.25% or 1% Empicol ESC70 (Sodium lauryl ether sulphate)+1% ammonium sulphate in water as diluent.
(§2) The test plants were then grown in a glasshouse under controlled conditions (at 24/16° C., day/night; 14 hours light; 65% humidity) and watered twice daily. After 13 days the test was evaluated (100=total damage to plant; 0=no damage to plant).
(§3) Ipomoea hederacea (IPOHE), Euphorbia heterophylla (EPHHL), Chenopodium album (CHEAL), Amaranthus palmeri (AMAPA), Lolium perenne (LOLPE), Digitaria sanguinalis (DIGSA), Eleusine indica (ELEIN), Echinochloa crus-galli (ECHCG), Setaria faberi (SETFA)

For another experiment, the system named is Lolium perenne (LOLPE). The note with it: 312 h, Application rate 500 g/Ha, evaluated after 13 days, 100=total damage to plant, 0=no damage to plant, read-out: Control of weed species after post-emergence application, LOLPE. The protocol: as §1, §2, §3
The next experiment concerns Eleusine indica (ELEIN). The note with it: 312 h, Application rate 500 g/Ha, evaluated after 13 days, 100=total damage to plant, 0=no damage to plant, read-out: Control of weed species after post-emergence application, ELEIN. Here is the method: as §1, §2, §3
The next experiment deals with Setaria faberi (SETFA). The note with it: 312 h, Application rate 500 g/Ha, evaluated after 13 days, 100=total damage to plant, 0=no damage to plant, read-out: Control of weed species after post-emergence application, SETFA. The protocol:
as §1, §2, §3

Experiment [2] relates to Euphorbia heterophylla (EPHHL). The note with it: 312 h, Application rate 500 g/Ha, evaluated after 13 days, 100=total damage to plant, 0=no damage to plant, read-out: Control of weed species after post-emergence application, EPHHL. Here is the method: as §1, §2, §3
In experiment [3] the test system is Amaranthus palmeri (AMAPA). The note with it: 312 h, Application rate 500 g/Ha, evaluated after 13 days, 100=total damage to plant, 0=no damage to plant, read-out: Control of weed species after post-emergence application, AMAPA. Here is the method:
as §1, §2, §3

In experiment [4] the test system is Ipomoea hederacea (IPOHE). The note with it: 312 h, Application rate 500 g/Ha, evaluated after 13 days, 100=total damage to plant, 0=no damage to plant, read-out: Control of weed species after post-emergence application, IPOHE. Here is the method: as §1, §2, §3
Experiment [5] relates to Digitaria sanguinalis (DIGSA). The note with it: 312 h, Application rate 500 g/Ha, evaluated after 13 days, 100=total damage to plant, 0=no damage to plant, read-out: Control of weed species after post-emergence application, DIGSA. The protocol:
as §1, §2, §3

In experiment [6] the test system is Chenopodium album (CHEAL). The note with it: 312 h, Application rate 500 g/Ha, evaluated after 13 days, 100=total damage to plant, 0=no damage to plant, read-out: Control of weed species after post-emergence application, CHEAL. Here is the method:
as §1, §2, §3

Where a name gives a salt, the structure may show the parent alone.

For the compound `O=C(C[n+]1ccc(-c2ncccn2)cn1)NC(Cc1ccccc1)C(=O)O` (stereo not drawn) [Compound A11], the pest or weed control at 500 g/ha in experiment [1] was 70%; with Lolium perenne (LOLPE) it was 20%; in the experiment with Eleusine indica (ELEIN) it was 90%; with Setaria faberi (SETFA), 50%; in experiment [2] it was 90%; in [3], 100%. Moreover, the pest or weed control at 500 g/ha stood at 20% in experiment [4], 90% in experiment [5] and 50% in [6].
On to `CC(NC(=O)C[n+]1ccc(-c2ncccn2)cn1)C(=O)O` (stereo not drawn) [Compound A12], for which the pest or weed control at 500 g/ha in [1] came to 70%; in the experiment with Lolium perenne (LOLPE) it was 50%; with Eleusine indica (ELEIN), 100%; in the experiment with Setaria faberi (SETFA), 70%; in experiment [2], 100%; in experiment [3], 100%. Also, the pest or weed control at 500 g/ha in [4] was found to be 70%; in [5], 90%; in experiment [6], 100%.
Turning to `O=C(C[n+]1ccc(-c2ncccn2)cn1)NC(C(=O)O)c1ccccc1` (stereo not drawn) [Compound A13], the pest or weed control at 500 g/ha in experiment [1] was found to be 80%; in the experiment on Lolium perenne (LOLPE) it was 30%; in the experiment with Eleusine indica (ELEIN), 90%; in the experiment with Setaria faberi (SETFA), 70%; in [2], 50%; in experiment [3], 100%. In addition, the pest or weed control at 500 g/ha amounted to 40% in experiment [4], 100% in [5] and 50% in experiment [6].
`O=C(O)CNC(=O)CC[n+]1ccc(-c2ncccn2)cn1` [Compound A14]: the pest or weed control at 500 g/ha (in experiment [1]; in the experiment on Lolium perenne (LOLPE); in the experiment on Eleusine indica (ELEIN); with Setaria faberi (SETFA); in [2]; in experiment [3]) was 100% each time. For the same compound, the pest or weed control at 500 g/ha in experiment [4] came out at 100%; in [5] it was 100%; in experiment [6], 90%.
In the case of `O=C(O)CS(=O)(=O)CC[n+]1ccc(-c2ncccn2)cn1` [Compound A15], the pest or weed control at 500 g/ha in [1] turned out to be 20%; with Lolium perenne (LOLPE) it was 10%; with Eleusine indica (ELEIN) it was 70%; in the experiment on Setaria faberi (SETFA), 50%; in experiment [2], 70%; in experiment [3] it was 70%. For the same compound, the values for the pest or weed control at 500 g/ha in [4], in experiment [5] and in experiment [6] were 10%, 60% and 20%, respectively.
In the case of `O=C(O)CSCC[n+]1ccc(-c2cccnn2)cn1` [Compound A18], the pest or weed control at 500 g/ha in experiment [1] turned out to be 60%; in the experiment on Lolium perenne (LOLPE), 70%; in the experiment with Eleusine indica (ELEIN) it was 100%; in the experiment on Setaria faberi (SETFA), 60%; in [2], 100%; in experiment [3], 100%. Besides, the values for the pest or weed control at 500 g/ha in experiment [4], in experiment [5] and in experiment [6] were 70%, 60% and 90%, respectively.
`CS(=O)(=O)N(CC[n+]1ccc(-c2ncccn2)cn1)CC(=O)O` [Compound A19, 2-[methylsulfonyl-[2-(4-pyrimidin-2-ylpyridazin-1-ium-1-yl)ethyl]amino]acetic acid 2,2,2-trifluoroacetate]: the pest or weed control at 500 g/ha stood at 40% in experiment [1]; 30% with Lolium perenne (LOLPE); 100% with Eleusine indica (ELEIN); 70% in the experiment on Setaria faberi (SETFA); 80% in experiment [2]; 100% in [3]. Moreover, the figures for the pest or weed control at 500 g/ha in experiment [4], in experiment [5] and in experiment [6] were 70%, 70% and 90%, respectively.
Regarding `O=C(O)CNC(=O)C[n+]1ccc(-c2ccncc2)cn1` [Compound A20], the pest or weed control at 500 g/ha came to 60% in [1]; 30% with Lolium perenne (LOLPE); 60% in the experiment on Eleusine indica (ELEIN); 70% in the experiment with Setaria faberi (SETFA); 90% in experiment [2]; 100% in [3]. Moreover, the pest or weed control at 500 g/ha stood at 70% in [4], 70% in experiment [5] and 90% in experiment [6].
As for `O=S(=O)([O-])OCCOCC[n+]1ccc(-c2ncccn2)cn1` [Compound A21, 2-[2-(4-pyrimidin-2-ylpyridazin-1-ium-1-yl)ethoxy]ethyl sulfate], the pest or weed control at 500 g/ha in [1] is 80%; in the experiment with Lolium perenne (LOLPE) it was 40%; in the experiment on Eleusine indica (ELEIN), 80%; with Setaria faberi (SETFA) it was 70%; in [2], 90%; in experiment [3], 100%. Also, the results for the pest or weed control at 500 g/ha in experiment [4], in experiment [5] and in [6] were 40%, 70% and 70%, respectively.
As to `O=C(O)CNC(=O)CC[n+]1ccc(-c2ccncn2)cn1` [Compound A23], the pest or weed control at 500 g/ha in [1] was 60%; in the experiment with Lolium perenne (LOLPE) it was 40%; with Eleusine indica (ELEIN), 100%; in the experiment with Setaria faberi (SETFA) it was 60%; in experiment [2], 90%; in [3], 100%. Besides, the figures for the pest or weed control at 500 g/ha in experiment [4], in [5] and in [6] were 100%, 100% and 70%, respectively.
As for `CN(CC(=O)O)C(=O)CC[n+]1ccc(-c2ncccn2)cn1` [Compound A24], the pest or weed control at 500 g/ha in experiment [1] came out at 40%; with Lolium perenne (LOLPE), 30%; with Eleusine indica (ELEIN), 50%; in the experiment with Setaria faberi (SETFA), 70%; in experiment [2], 90%; in experiment [3], 90%. Further, the results for the pest or weed control at 500 g/ha in [4], in [5] and in experiment [6] were 40%, 100% and 90%, respectively.
Consider `CC(NC(=O)CC[n+]1ccc(-c2ncccn2)cn1)C(=O)O` (stereo not drawn) [Compound A25], for which the pest or weed control at 500 g/ha in [1] worked out at 90%; in the experiment with Lolium perenne (LOLPE), 70%; in the experiment on Eleusine indica (ELEIN), 100%; with Setaria faberi (SETFA), 90%; in experiment [2], 100%; in experiment [3] it was 100%. Further, the pest or weed control at 500 g/ha amounted to 40% in experiment [4], 100% in experiment [5] and 100% in experiment [6].
In the case of `O=C(O)CNC(=O)C[n+]1ccc(-c2ccccn2)cn1` [Compound A26], the pest or weed control at 500 g/ha in experiment [1] came to 90%; in the experiment on Lolium perenne (LOLPE), 40%; in the experiment with Eleusine indica (ELEIN), 80%; with Setaria faberi (SETFA), 80%; in [2], 100%; in experiment [3], 100%. The pest or weed control at 500 g/ha came out at 40% in experiment [4], 70% in experiment [5] and 100% in experiment [6].
On to `O=C(O)CNC(=O)CC[n+]1ccc(-c2cccnn2)cn1` [Compound A27], for which the pest or weed control at 500 g/ha in experiment [1] worked out at 90%; with Lolium perenne (LOLPE), 70%; in the experiment with Eleusine indica (ELEIN), 60%; in the experiment on Setaria faberi (SETFA) it was 100%; in [2], 90%; in [3] it was 100%. In addition, the pest or weed control at 500 g/ha in experiment [4] turned out to be 40%; in experiment [5], 100%; in experiment [6], 100%.
